Values quoted from earlier work, collected in US20030232019A1, “Inhalable formulations for sustained release” (Advanced Inhalation Research, Inc., priority 2002, published 2003).

Settings: healthy volunteers after inhalation

## insulin
  time to half-maximal action (glucose infusion rate): about 30 minutes
